The NIST ThermoML archive (doi:10.1016/j.jct.2016.01.003)
Numbers after ± are expanded uncertainties.

Tests used:
[1] = Crystal
[2] = Molar enthalpy of transition or fusion; conditions: Crystal; DSC

- mass density ([1]; 298.15 K, 101.33 kPa, flotation method): 1397 ± 2 kg/m3
- Normal melting temperature ([1]; DTA): 192.90 ± 1.1 °C
- Molar enthalpy of transition or fusion [2]: 6.96 ± 0.237 kcal/mol
Structure (SMILES): O=C1c2cccc(Cl)c2C(=O)N1c1ccccc1 [3-chloro-N-phenylphthalimide]
